Data: PubChem BioAssay (NCI)
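GI50 marks 50% less growth. TGI marks complete inhibition of growth.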

Assays:
Experiment in all cases: NCI anticancer screen, dose series, 384-well format
NCI-H23 lung = tested on: NCI-H23 lung
T-47D breast = tested on: T-47D breast
OVCAR-8 ovarian = tested on: OVCAR-8 ovarian
OVCAR-3 ovarian = tested on: OVCAR-3 ovarian
MCF7 breast = tested on: MCF7 breast
SF-295 CNS = tested on: SF-295 CNS
SW-620 colon = tested on: SW-620 colon
HL-60(TB) leukemia = tested on: HL-60(TB) leukemia
MDA-MB-468 breast = tested on: MDA-MB-468 breast
NCI-H322M lung = tested on: NCI-H322M lung
HS 578T breast = tested on: HS 578T breast
LOX IMVI melanoma = tested on: LOX IMVI melanoma
HCT-15 colon = tested on: HCT-15 colon
MDA-MB-435 melanoma = tested on: MDA-MB-435 melanoma
MOLT-4 leukemia = tested on: MOLT-4 leukemia
K-562 leukemia = tested on: K-562 leukemia
NCI-H460 NSCLC = tested on: NCI-H460 NSCLC
IGROV1 ovarian = tested on: IGROV1 ovarian
EKVX NSCLC = tested on: EKVX NSCLC
UO-31 renal = tested on: UO-31 renal
MALME-3M melanoma = tested on: MALME-3M melanoma
A498 renal = tested on: A498 renal
HT29 colon = tested on: HT29 colon
SF-539 CNS = tested on: SF-539 CNS
NCI/ADR-RES ovarian = tested on: NCI/ADR-RES ovarian
SNB-75 CNS = tested on: SNB-75 CNS
BT-549 breast = tested on: BT-549 breast
M14 melanoma = tested on: M14 melanoma
SK-MEL-5 melanoma = tested on: SK-MEL-5 melanoma
CCRF-CEM leukemia = tested on: CCRF-CEM leukemia
HOP-62 NSCLC = tested on: HOP-62 NSCLC
OVCAR-5 ovarian = tested on: OVCAR-5 ovarian
UACC-62 melanoma = tested on: UACC-62 melanoma
A549 NSCLC = tested on: A549 NSCLC
HOP-92 NSCLC = tested on: HOP-92 NSCLC
SR leukemia = tested on: SR leukemia
NCI-H226 lung = tested on: NCI-H226 lung
U251 glioblastoma = tested on: U251 glioblastoma
RPMI-8226 leukemia = tested on: RPMI-8226 leukemia
SK-MEL-28 melanoma = tested on: SK-MEL-28 melanoma
ACHN renal = tested on: ACHN renal
TK-10 renal = tested on: TK-10 renal
UACC-257 melanoma = tested on: UACC-257 melanoma
COLO 205 colon = tested on: COLO 205 colon
DU-145 prostate = tested on: DU-145 prostate
NCI-H522 lung = tested on: NCI-H522 lung
MDA-MB-231 breast = tested on: MDA-MB-231 breast

Q: What does the source list for `Cc1nc(NC(=O)N2CCC[C@H]2C(N)=O)sc1-c1ccnc(C(C)(C)C(F)(F)F)c1`?
A: GI50 (NCI-H23 lung): 12.1 µM; TGI (NCI-H23 lung): 44.4 µM; GI50 (T-47D breast): 0.0839 µM; TGI (T-47D breast): 0.592 µM; GI50 (OVCAR-8 ovarian): 14.3 µM; TGI (OVCAR-8 ovarian): 88.7 µM; GI50 (OVCAR-3 ovarian): 6.07 µM; TGI (OVCAR-3 ovarian): 27.8 µM; GI50 (MCF7 breast): 0.205 µM; TGI (MCF7 breast): 17.8 µM; GI50 (SF-295 CNS): 9.16 µM; TGI (SF-295 CNS): 33.5 µM; GI50 (SW-620 colon): 8.53 µM; TGI (SW-620 colon): 40.2 µM; GI50 (HL-60(TB) leukemia): 0.727 µM; TGI (HL-60(TB) leukemia): 9.24 µM; GI50 (MDA-MB-468 breast): 1.26 µM; TGI (MDA-MB-468 breast): 7.64 µM; GI50 (NCI-H322M lung): 4.6 µM; TGI (NCI-H322M lung): 26.6 µM; GI50 (HS 578T breast): 3.7 µM; TGI (HS 578T breast): 18.4 µM; GI50 (LOX IMVI melanoma): 7.55 µM; TGI (LOX IMVI melanoma): 28 µM; GI50 (HCT-15 colon): 2.74 µM; TGI (HCT-15 colon): 27.8 µM; GI50 (MDA-MB-435 melanoma): 24.6 µM; TGI (MDA-MB-435 melanoma): > 80.3 µM; GI50 (MOLT-4 leukemia): 0.857 µM; TGI (MOLT-4 leukemia): 4.24 µM; GI50 (K-562 leukemia): 15.6 µM; TGI (K-562 leukemia): 35.1 µM; GI50 (NCI-H460 NSCLC): 2.13 µM; TGI (NCI-H460 NSCLC): 43 µM; GI50 (IGROV1 ovarian): 0.118 µM; TGI (IGROV1 ovarian): 1.34 µM; GI50 (EKVX NSCLC): 5.55 µM; TGI (EKVX NSCLC): 24.8 µM; GI50 (UO-31 renal): 8.46 µM; TGI (UO-31 renal): 58.5 µM; GI50 (MALME-3M melanoma): 6.66 µM; TGI (MALME-3M melanoma): 29.4 µM; GI50 (A498 renal): 8.13 µM; TGI (A498 renal): 37.7 µM; GI50 (HT29 colon): 1.58 µM; TGI (HT29 colon): 33.4 µM; GI50 (SF-539 CNS): 12.5 µM; TGI (SF-539 CNS): 38.3 µM; GI50 (NCI/ADR-RES ovarian): 16.5 µM; TGI (NCI/ADR-RES ovarian): 71.9 µM; GI50 (SNB-75 CNS): 1.17 µM; TGI (SNB-75 CNS): 8.53 µM; GI50 (BT-549 breast): 5.81 µM; TGI (BT-549 breast): 28.6 µM; GI50 (M14 melanoma): 15 µM; TGI (M14 melanoma): > 74.2 µM; GI50 (SK-MEL-5 melanoma): 6.54 µM; TGI (SK-MEL-5 melanoma): 14.9 µM; GI50 (CCRF-CEM leukemia): 3.51 µM; TGI (CCRF-CEM leukemia): 15.6 µM; GI50 (HOP-62 NSCLC): 18 µM; TGI (HOP-62 NSCLC): > 94.3 µM; GI50 (OVCAR-5 ovarian): 5.5 µM; TGI (OVCAR-5 ovarian): 37.4 µM; GI50 (UACC-62 melanoma): 10.2 µM; TGI (UACC-62 melanoma): 24 µM; GI50 (A549 NSCLC): 6.07 µM; TGI (A549 NSCLC): 23.7 µM; GI50 (HOP-92 NSCLC): 3.09 µM; TGI (HOP-92 NSCLC): 20.6 µM; GI50 (SR leukemia): 3.57 µM; TGI (SR leukemia): 15.6 µM; GI50 (NCI-H226 lung): 8.88 µM; TGI (NCI-H226 lung): 32.5 µM; GI50 (U251 glioblastoma): 10.3 µM; TGI (U251 glioblastoma): 39.5 µM; GI50 (RPMI-8226 leukemia): 7.05 µM; TGI (RPMI-8226 leukemia): 21.7 µM; GI50 (SK-MEL-28 melanoma): 7.87 µM; TGI (SK-MEL-28 melanoma): > 83 µM; GI50 (ACHN renal): 9.43 µM; TGI (ACHN renal): 48.7 µM; GI50 (TK-10 renal): 4.71 µM; TGI (TK-10 renal): 28.5 µM; GI50 (UACC-257 melanoma): 23 µM; TGI (UACC-257 melanoma): 70.3 µM; GI50 (COLO 205 colon): 7.15 µM; TGI (COLO 205 colon): 43.4 µM; GI50 (DU-145 prostate): 10.8 µM; TGI (DU-145 prostate): 33.7 µM; GI50 (NCI-H522 lung): 4.78 µM; TGI (NCI-H522 lung): 23.8 µM; GI50 (MDA-MB-231 breast): 13.5 µM; TGI (MDA-MB-231 breast): 48.7 µM
